In PubChem BioAssay (NCI):
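Five compound concentrations were applied to cells in 96-well plates for 48 hours; endpoints were derived by simple linear interpolation of the resulting dose-response curve. GI50 marks 50% less growth. TGI denotes the concentration required for complete inhibition of growth.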

Experiments:
Experiment in all cases: NCI anticancer screen, dose series, 48 h
HOP-62 NSCLC = test system: HOP-62 NSCLC
IGROV1 ovarian = test system: IGROV1 ovarian
M14 melanoma = test system: M14 melanoma
MOLT-4 leukemia = test system: MOLT-4 leukemia
SNB-19 CNS = test system: SNB-19 CNS
SW-620 colon = test system: SW-620 colon
UACC-62 melanoma = test system: UACC-62 melanoma
OVCAR-3 ovarian = test system: OVCAR-3 ovarian
MDA-MB-435 = test system: MDA-MB-435
PC-3 prostate = test system: PC-3 prostate

SMILES | TGI (HOP-62 NSCLC) [µM] | TGI (IGROV1 ovarian) [µM] | TGI (M14 melanoma) [µM] | TGI (MOLT-4 leukemia) [µM] | TGI (SNB-19 CNS) [µM] | TGI (SW-620 colon) [µM] | TGI (UACC-62 melanoma) [µM] | TGI (OVCAR-3 ovarian) [µM] | TGI (MDA-MB-435) [µM] | TGI (PC-3 prostate) [µM] | GI50 (HOP-62 NSCLC) [µM] | GI50 (IGROV1 ovarian) [nM] | GI50 (M14 melanoma) [µM] | GI50 (OVCAR-3 ovarian) [µM] | GI50 (PC-3 prostate) [nM] | GI50 (SNB-19 CNS) [nM] | GI50 (SW-620 colon) [µM] | GI50 (UACC-62 melanoma) [nM] | GI50 (MOLT-4 leukemia) [µM] | GI50 (MDA-MB-435) [µM]
CCCCCCCCCCCCOC(=S)NC | 37.3 | 38.9 | 37.1 | 32.1 | > 100 | 32.6 | 31 | – | – | – | – | – | – | – | – | – | – | – | – | –
CN(/C(=N\O)c1ccccc1)c1ccccc1 | 58.8 | – | 57.5 | – | 90.3 | > 100 | – | 59.2 | – | – | – | – | – | – | – | – | – | – | – | –
COc1ccc(NCc2c(O)ccc3ccccc23)cc1 | > 100 | > 100 | 47.6 | – | > 100 | 49.6 | > 100 | > 100 | > 100 | 49.9 | – | – | – | – | – | – | – | – | – | –
C[C@@]1(CBr)C[C@@](C)(/C=C/Cl)[C@@H](Cl)C[C@H]1Cl | 27.5 | 29 | 29 | 19.4 | 27.1 | 27.8 | 29.1 | 22.8 | – | – | – | – | – | – | – | – | – | – | – | –
O/N=C1/C(=C/c2ccc(Cl)cc2)CCCC1C(NO)c1ccc(Cl)cc1 (stereo unspecified) | 68.9 | > 100 | 33.8 | 37.2 | 76.6 | > 100 | > 100 | 31 | – | – | – | – | – | – | – | – | – | – | – | –
NC(N)=N/N=C(/c1ccccc1)c1ccc(O)cc1O | > 100 | > 100 | 58.7 | – | > 100 | > 100 | > 100 | > 100 | > 100 | > 100 | – | – | – | – | – | – | – | – | – | –
Cc1ccc2oc(=O)cc(C3c4ccc([nH]4)C(c4cc(=O)oc5ccc(C)cc45)c4ccc([nH]4)C(c4cc(=O)oc5ccc(C)cc45)c4ccc([nH]4)C(c4cc(=O)oc5ccc(C)cc45)c4ccc3[nH]4)c2c1 (stereo unspecified) | 1.27 | 1.73 | 0.0766 | – | 3.45 | 3.34 | 0.8 | 0.0533 | – | 1.94 | 0.0463 | 49.2 | 0.0253 | 0.0225 | 36.6 | 39.4 | 0.0352 | 32.4 | – | –
COc1cccc2cc(N(C)c3nc(C)nc4ccsc34)ccc12 | 18.9 | 14.5 | 12.6 | 29.7 | 22.9 | 16.6 | 12.5 | – | – | 15.1 | – | < 10 | < 0.01 | < 0.01 | < 10 | < 10 | < 0.01 | < 10 | < 0.01 | –
COc1cc(C(=O)/C=C/c2c(-c3cccs3)nc3ccccn23)cc(OC)c1OC | 6.75 | 3.73 | – | 4.39 | 5.56 | – | 3.57 | 5.36 | 9.52 | – | 2.88 | 1890 | – | 2.44 | – | 2100 | – | 1610 | 1.77 | 2.49
NCCCn1c2c(c3ccc([N+](=O)[O-])cc3c1=O)C(=O)c1cc(Cl)ccc1-2 | 0.123 | – | 0.0318 | < 0.0114 | 0.227 | 0.213 | 0.0696 | – | – | 0.381 | < 0.01 | – | < 0.01 | – | < 16.3 | < 10 | < 0.01 | < 10 | < 0.01 | –
CCc1ccccc1NC(=O)C1=C(C)NC(C)=C(C(=O)Nc2ccccc2CC)C1c1ccc(NC(C)=O)cc1 | 92.8 | > 100 | > 100 | 54.4 | > 100 | > 100 | – | > 100 | – | – | – | – | – | – | – | – | – | – | – | –
CSc1ccc(C(=O)/C=C/c2ccc(F)cc2)cc1 | > 100 | 65.9 | > 100 | 94.4 | > 100 | 70.8 | > 100 | – | 78.3 | > 100 | > 100 | 28200 | > 100 | – | 49900 | > 100000 | 24.8 | > 100000 | 33.9 | 33.5
CCC[CH2][Sn]1([CH2]CCC)[O]CC([CH2][Sn]([c]2ccccc2)([c]2ccccc2)[c]2ccccc2)[O]1 (stereo unspecified) | – | 29.2 | 31.4 | 28.5 | 28.6 | 15.7 | 22.6 | 29.9 | – | – | – | 15200 | 15.9 | 14.9 | – | 15100 | 3.9 | 10600 | 3.22 | –
CC(=O)OC1C/C(C)=C/[C@H](O)CC(C)/C=C/[C@@]2(C)CCC(C(C)(C)O)C12 (stereo partly specified) | > 100 | > 100 | > 100 | > 100 | > 100 | > 100 | > 100 | > 100 | – | – | – | – | – | – | – | – | – | – | – | –
COc1cc(CCC(=O)NS(=O)(=O)c2ccccc2)cc(OC)c1OC | > 100 | > 100 | > 100 | > 100 | > 100 | > 100 | > 100 | > 100 | – | – | – | – | – | – | – | – | – | – | – | –
CN(C(=O)C1CC1)C1C2CN3CCC(O2)C13 (stereo unspecified) | > 100 | > 100 | > 100 | > 100 | > 100 | > 100 | > 100 | > 100 | – | – | – | – | – | – | – | – | – | – | – | –
COc1ccc(-c2cc3nccn3c(Nc3ncccc3C(N)=O)n2)cc1OC | > 100 | 6.19 | > 100 | > 100 | > 100 | > 100 | > 100 | > 100 | – | > 100 | 3.18 | 472 | > 65.7 | > 47 | > 100000 | > 100000 | 2.34 | 742 | 4.14 | –
CC(=O)[CH-]C(=O)c1ccccc1.CC(=O)[CH-]C(=O)c1ccccc1.CC[O-].O=C1C=C([O-])C(=O)c2ccccc21.[Ti+4] | > 100 | > 100 | > 100 | > 100 | > 100 | > 100 | > 100 | > 100 | – | – | 58.2 | > 100000 | 18 | 42.6 | – | > 100000 | 33 | 38800 | 58.3 | –
COC(=O)C1CCC(N2C(=O)CCC2C(=O)OC)=N1 (stereo unspecified) | > 100 | > 100 | > 100 | > 100 | > 100 | > 100 | > 100 | > 100 | – | – | – | – | – | – | – | – | – | – | – | –
